Reference: US11292788B2, “IL-17 and IFN-gamma inhibition for the treatment of autoimmune diseases and chronic inflammation” (Immunic AG, priority 2017, dated 2022)
Where two headings read alike, the source gives them in different places.

Legend:
INF-γ = assay: Cytokine assay: INF-γ production by human PBMC stimulated with PHA; format: cell-based; details: IC50 class, read-out: IFN-gamma Inhib.
Outline: (§1)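 Human donor PBMC (1×10^5 cells/well) were activated with 2 μg/ml PHA and exposed to compounds for 48 h. Supernatant IL-17A, IL-17F and IFN-γ were measured by Luminex or ELISA. Screening used 10, 1, 0.1 and 0.01 μM; IC50 values came from semilogarithmic titrations.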

[1] = Microsomal stability: incubation with human liver microsomes, residual parent compound by HPLC-MS/MS; format: in vitro ADME; details: human liver microsomes 0.5 mg/ml, compound 1 μM, pH 7.4, 37° C., up to 60 min; read-out: t1/2 hLM
Description: Metabolic stability of compounds of the present invention was determined by incubation with human liver microsomes and subsequent determination of residual amount of the respective compound (“parent compound”) by HPLC-MS/MS.
In order to achieve this, in a final reaction volume of 1000 μl, each compound was incubated at a final concentration of 1 μM with 0.5 mg/ml human liver microsomes (HLM Pool 50 Donors, 20 mg/ml, BD Gentest, #452156, LotNr 88114) in 0.1 M Potassium phosphate buffer at pH 7.4, with a cofactor in form of a NADPH regenerating system (Promega, #V9510) according to the manufacturers' specifications. The final DMSO concentration in each sample was 0.4%. The incubation was performed at 37° C. under shaking conditions (Thermomixer, 1400 rpm) for different time intervals up to 60 min. To stop the reaction, for each time point 200 μl of the reaction were taken out and 200 μl ice-cold acetonitrile was added. Then, the samples were centrifuged (4° C., 14000*g for 15 min). The supernatant was analyzed for residual parent compound concentration and scanned for metabolites using HPLC-MS/MS. By using optimized MS methods for each compound, the peak area under curve for the compound specific signal is determined. The change of the peak areas over the assay time of 60 min resemble the remaining parent compound in % of T0. By these points, a balancing line was set. The half-time, as well as the clearance, can then be calculated on the basis of the slope.

IL-17A = assay: Cytokine assay: IL-17A production by human PBMC stimulated with PHA; format: cell-based; details: IC50 class, read-out: IL-17A Inhib.
Outline: as §1

IL-17F = assay: Cytokine assay: IL-17F production by human PBMC stimulated with PHA; format: cell-based; details: IC50 class, read-out: IL-17F Inhib.
Outline: as §1

Row | SMILES | IC50 (INF-γ; Homo sapiens, PBMC) [nM] | half-life at 1 μM [1] [min] | IC50 (IL-17A; Homo sapiens, PBMC) [nM] | IC50 (IL-17F; Homo sapiens, PBMC) [nM] | IC50 (INF-γ) [nM] | IC50 (IL-17A) [nM] | IC50 (IL-17F) [nM]
1 | CCC(O)Cn1ncc(-c2onc(-c3c(F)cccc3Cl)c2-c2nccs2)c1C(F)(F)F (racemic) [Example 6, 1-{4-[3-(2-chloro-6-fluorophenyl)-4-(1,3-thiazol-2-yl)-1,2-oxazol-5-yl]-5-(trifluoromethyl)-1H-pyrazol-1-yl}butan-2-ol] | < 50 | 10 to 40 | < 50 | < 50 | – | – | –
2 | OC(Cn1ncc(-c2onc(-c3c(F)cccc3Cl)c2-c2nccs2)c1C(F)(F)F)C(F)(F)F (racemic) [Example 7, 3-{4-[3-(2-chloro-6-fluorophenyl)-4-(1,3-thiazol-2-yl)-1,2-oxazol-5-yl]-5-(trifluoromethyl)-1H-pyrazol-1-yl}-1,1,1-trifluoropropan-2-ol] | < 50 | 10 to 40 | < 50 | < 50 | – | – | –
3 | CC(C)(O)CCn1ncc(-c2onc(-c3c(F)cccc3Cl)c2-c2nccs2)c1C(F)(F)F [Example 3, 4-(4-(3-(2-chloro-6-fluorophenyl)-4-(thiazol-2-yl)isoxazol-5-yl)-5-(trifluoromethyl)-1H-pyrazol-1-yl)-2-methylbutan-2-ol] | < 50 | > 100 | < 50 | < 50 | – | – | –
4 | C[C@@H](O)Cn1ncc(-c2onc(-c3c(F)cccc3Cl)c2-c2nccs2)c1C(F)(F)F [Example 4, (2R)-1-(4-(3-(2-chloro-6-fluorophenyl)-4-(thiazol-2-yl)isoxazol-5-yl)-5-(trifluoromethyl)-1H-pyrazol-1-yl)propan-2-ol] | < 50 | 10 to 40 | < 50 | < 50 | – | – | –
5 | C[C@H](O)Cn1ncc(-c2onc(-c3c(F)cccc3Cl)c2-c2nccs2)c1C(F)(F)F [Example 5, (2S)-1-(4-(3-(2-chloro-6-fluorophenyl)-4-(thiazol-2-yl)isoxazol-5-yl)-5-(trifluoromethyl)-1H-pyrazol-1-yl)propan-2-ol] | < 50 | 40 to 100 | < 50 | 50 to 500 | – | – | –
6 | CCOC(=O)c1c(-c2c(F)cccc2Cl)noc1-c1cnn(C[C@@H](O)C(F)(F)F)c1C(F)(F)F [Example 16, ethyl 3-(2-chloro-6-fluorophenyl)-5-{1-[(2R)-3,3,3-trifluoro-2-hydroxypropyl]-5-(trifluoromethyl)-1H-pyrazol-4-yl}-1,2-oxazole-4-carboxylate] | < 50 | 2 to 9.99 | < 50 | < 50 | – | – | –
7 | COC(=O)c1c(-c2ccccc2Cl)noc1-c1cnn([C@H]2C[C@](C)(O)C2)c1C [Example 18, methyl 3-(2-chlorophenyl)-5-(1-(3-hydroxy-3-methylcyclobutyl)-5-methyl-1H-pyrazol-4-yl)isoxazole-4-carboxylate] | – | > 100 | – | – | < 50 | 50 to 500 | < 50
8 | COC(=O)c1c(-c2ccccc2Cl)noc1-c1cnn(CCC(C)(C)O)c1C [Example 19, methyl 3-(2-chlorophenyl)-5-[1-(3-hydroxy-3-methylbutyl)-5-methyl-1H-pyrazol-4-yl]-1,2-oxazole-4-carboxylate] | < 50 | > 100 | < 50 | 50 to 500 | – | – | –
9 | COC(=O)c1c(-c2c(F)cccc2Cl)noc1-c1cnn(C[C@H](C)O)c1C(F)(F)F [Example 23, methyl (S)-3-(2-chloro-6-fluorophenyl)-5-(1-(2-hydroxypropyl)-5-(trifluoromethyl)-1H-pyrazol-4-yl)isoxazole-4-carboxylate] | < 50 | 10 to 40 | 50 to 500 | 50 to 500 | – | – | –
10 | COC(=O)c1c(-c2cccc(OC)c2Cl)noc1-c1cnn(CCC(C)(C)O)c1C [Example 25, methyl 3-(2-chloro-3-methoxyphenyl)-5-[1-(3-hydroxy-3-methylbutyl)-5-methyl-1H-pyrazol-4-yl]-1,2-oxazole-4-carboxylate] | < 50 | > 100 | < 50 | < 50 | – | – | –

Further lines, results first:

Row | IC50 (INF-γ; Homo sapiens, PBMC) [nM] | half-life at 1 μM [1] [min] | IC50 (IL-17A; Homo sapiens, PBMC) [nM] | IC50 (IL-17F; Homo sapiens, PBMC) [nM] | IC50 (INF-γ) [nM] | IC50 (IL-17A) [nM] | IC50 (IL-17F) [nM] | SMILES
11 | < 50 | > 100 | – | – | – | < 50 | < 50 | Cc1c(-c2onc(-c3ccccc3Cl)c2C(=O)OC2CC2)cnn1[C@H]1C[C@@](C)(O)C1 [Example 53, cyclopropyl 3-(2-chlorophenyl)-5-{5-methyl-1-[3-hydroxy-3-methylcyclobutyl]-1H-pyrazol-4-yl}-1,2-oxazole-4-carboxylate]
12 | < 50 | 40 to 100 | < 50 | < 50 | – | – | – | CC(C)(O)Cn1ncc(-c2onc(-c3c(F)cccc3Cl)c2C(=O)OC2CC2)c1C(F)(F)F [Example 55, cyclopropyl 3-(2-chloro-6-fluorophenyl)-5-[1-(2-hydroxy-2-methylpropyl)-5-(trifluoromethyl)-1H-pyrazol-4-yl]-1,2-oxazole-4-carboxylate]
13 | < 50 | 40 to 100 | 50 to 500 | < 50 | – | – | – | C[C@@H](O)Cn1ncc(-c2onc(-c3c(F)cccc3Cl)c2C(=O)OC2COC2)c1C(F)(F)F [Example 58, oxetan-3-yl 3-(2-chloro-6-fluorophenyl)-5-{1-[(2R)-2-hydroxypropyl]-5-(trifluoromethyl)-1H-pyrazol-4-yl}-1,2-oxazole-4-carboxylate]
14 | 50 to 500 | – | 500 to 5000 | 500 to 5000 | – | – | – | C[C@@H](O)Cn1ncc(-c2onc(-c3cccc(C(=O)NC4CC4)c3Cl)c2-c2ccncn2)c1C(F)(F)F [Example 159, (R)-2-chloro-N-cyclopropyl-3-(5-(1-(2-hydroxypropyl)-5-(trifluoromethyl)-1H-pyrazol-4-yl)-4-(pyrimidin-4-yl)isoxazol-3-yl)benzamide]
15 | 500 to 5000 | – | ≥ 5000 | ≥ 5000 | – | – | – | COc1c(C(=O)NC2CC2)cccc1-c1noc(-c2cnn(C[C@@H](C)O)c2C(F)(F)F)c1-c1ccncn1 [Example 161, (R)—N-cyclopropyl-3-(5-(1-(2-hydroxypropyl)-5-(trifluoromethyl)-1H-pyrazol-4-yl)-4-(pyrimidin-4-yl)isoxazol-3-yl)-2-methoxybenzamide]
16 | 50 to 500 | – | 500 to 5000 | ≥ 5000 | – | – | – | COc1c(C(=O)NC(C)C)cccc1-c1noc(-c2cnn(C[C@@H](C)O)c2C(F)(F)F)c1-c1ccncn1 [Example 162, (R)-3-(5-(1-(2-hydroxypropyl)-5-(trifluoromethyl)-1H-pyrazol-4-yl)-4-(pyrimidin-4-yl)isoxazol-3-yl)-N-isopropyl-2-methoxybenzamide]
17 | 500 to 5000 | – | ≥ 5000 | ≥ 5000 | – | – | – | COc1c(C(=O)N2CCC2)cccc1-c1noc(-c2cnn(C[C@@H](C)O)c2C(F)(F)F)c1-c1ccncn1 [Example 163, (R)-(azetidin-1-yl)(3-(5-(1-(2-hydroxypropyl)-5-(trifluoromethyl)-1H-pyrazol-4-yl)-4-(pyrimidin-4-yl)isoxazol-3-yl)-2-methoxyphenyl)methanone]
18 | 500 to 5000 | – | 500 to 5000 | 500 to 5000 | – | – | – | COc1c(C(=O)NC2CCC2)cccc1-c1noc(-c2cnn(C[C@@H](C)O)c2C(F)(F)F)c1-c1ccncn1 [Example 164, (R)—N-cyclobutyl-3-(5-(1-(2-hydroxypropyl)-5-(trifluoromethyl)-1H-pyrazol-4-yl)-4-(pyrimidin-4-yl)isoxazol-3-yl)-2-methoxybenzamide]
19 | 500 to 5000 | – | 500 to 5000 | ≥ 5000 | – | – | – | CCNC(=O)c1cccc(-c2noc(-c3cnn(C[C@@H](C)O)c3C(F)(F)F)c2-c2ccncn2)c1OC [Example 165, (R)—N-ethyl-3-(5-(1-(2-hydroxypropyl)-5-(trifluoromethyl)-1H-pyrazol-4-yl)-4-(pyrimidin-4-yl)isoxazol-3-yl)-2-methoxybenzamide]
20 | 500 to 5000 | – | 500 to 5000 | ≥ 5000 | – | – | – | C[C@@H](O)Cn1ncc(-c2onc(-c3cccc(C(=O)NC4CCC4)c3)c2-c2ccncn2)c1C(F)(F)F [Example 166, (R)—N-cyclobutyl-3-(5-(1-(2-hydroxypropyl)-5-(trifluoromethyl)-1H-pyrazol-4-yl)-4-(pyrimidin-4-yl)isoxazol-3-yl)benzamide]
21 | 500 to 5000 | – | ≥ 5000 | ≥ 5000 | – | – | – | CC(C)NC(=O)c1cccc(-c2noc(-c3cnn(C[C@@H](C)O)c3C(F)(F)F)c2-c2ccncn2)c1 [Example 167, (R)-3-(5-(1-(2-hydroxypropyl)-5-(trifluoromethyl)-1H-pyrazol-4-yl)-4-(pyrimidin-4-yl)isoxazol-3-yl)-N-isopropylbenzamide]
